Results published in patent US20250262201A1, “COMPOUNDS AND METHODS USEFUL FOR STABILIZING PHENYLALANINE HYDROXYLASE MUTATIONS” (Agios Pharmaceuticals, Inc., priority 2022, published 2025).

Molecular target: T1, human PAH with the R408W mutation (Homo sapiens, UniProt P00439, R408W)
T1 construct: expressed in transfected cells
T1 sequence (P00439 1-452 R408W): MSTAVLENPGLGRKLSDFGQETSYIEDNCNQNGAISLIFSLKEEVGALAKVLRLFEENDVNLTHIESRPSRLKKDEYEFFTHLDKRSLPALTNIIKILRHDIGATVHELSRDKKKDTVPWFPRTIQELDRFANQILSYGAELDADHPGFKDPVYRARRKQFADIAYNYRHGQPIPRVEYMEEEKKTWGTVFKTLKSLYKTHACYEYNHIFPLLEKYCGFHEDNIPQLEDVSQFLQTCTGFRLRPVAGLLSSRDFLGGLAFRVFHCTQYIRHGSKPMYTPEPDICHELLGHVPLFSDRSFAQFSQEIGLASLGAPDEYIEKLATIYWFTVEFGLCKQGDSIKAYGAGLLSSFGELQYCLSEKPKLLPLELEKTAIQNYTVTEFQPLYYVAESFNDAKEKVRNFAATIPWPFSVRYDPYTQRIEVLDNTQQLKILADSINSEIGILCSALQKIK
Experiment: Cell Based Phenylalanine Flux Assay
Conditions: A375 cells expressing human R408W PAH; 24 hrs compound incubation; 13C-Tyrosine by LC-MS; average where tested multiple times; read-out: AC50

Row | AC50 [nM] | Compound
1 | < 500 | O=C(c1cnn2cc(-c3ncccc3F)ccc12)N1CCc2[nH]cnc2[C@H]1c1cc2ccccc2cn1 [Example 482, (R)-(6-(3-fluoropyridin-2-yl)pyrazolo[1,5-a]pyridin-3-yl)(4-(isoquinolin-3-yl)-6,7-dihydro-1H-imidazo[4,5-c]pyridin-5(4H)-yl)methanone]
2 | < 500 | O=C(c1cnn2cc(-c3ncccn3)ccc12)N1CCc2[nH]cnc2[C@H]1c1cc2ccccc2cn1 [Example 483, (R)-(4-(isoquinolin-3-yl)-6,7-dihydro-1H-imidazo[4,5-c]pyridin-5(4H)-yl)(6-(pyrimidin-2-yl)pyrazolo[1,5-a]pyridin-3-yl)methanone]
3 | < 500 | O=C(c1cnn2cc(CN3CCOCC3)ccc12)N1CCc2[nH]cnc2[C@H]1c1cc2ccccc2cn1 [Example 484, (R)-(4-(isoquinolin-3-yl)-6,7-dihydro-1H-imidazo[4,5-c]pyridin-5(4H)-yl)(6-(morpholinomethyl)pyrazolo[1,5-a]pyridin-3-yl)methanone]
4 | < 500 | O=C(c1cnn2cc(-c3ccccc3)ccc12)N1CCc2[nH]cnc2[C@H]1c1cc2ccccc2cn1 [Example 485, (R)-(4-(isoquinolin-3-yl)-6,7-dihydro-1H-imidazo[4,5-c]pyridin-5(4H)-yl)(6-phenylpyrazolo[1,5-a]pyridin-3-yl)methanone]
5 | < 500 | O=C(c1cnn2cc(-c3ccncc3)ccc12)N1CCc2[nH]cnc2[C@H]1c1cc2ccccc2cn1 [Example 486, (R)-(4-(isoquinolin-3-yl)-6,7-dihydro-1H-imidazo[4,5-c]pyridin-5(4H)-yl)(6-(pyridin-4-yl)pyrazolo[1,5-a]pyridin-3-yl)methanone]
6 | < 500 | O=C(c1cnn2cc(-c3cncnc3)ccc12)N1CCc2[nH]cnc2[C@H]1c1cc2ccccc2cn1 [Example 487, (R)-(4-(isoquinolin-3-yl)-6,7-dihydro-1H-imidazo[4,5-c]pyridin-5(4H)-yl)(6-(pyrimidin-5-yl)pyrazolo[1,5-a]pyridin-3-yl)methanone]
7 | < 500 | CN1CCN(Cc2ccc3c(C(=O)N4CCc5[nH]cnc5[C@H]4c4cc5ccccc5cn4)cnn3c2)CC1 [Example 488, (R)-(4-(isoquinolin-3-yl)-6,7-dihydro-1H-imidazo[4,5-c]pyridin-5(4H)-yl)(6-((4-methylpiperazin-1-yl)methyl)pyrazolo[1,5-a]pyridin-3-yl)methanone]
8 | < 500 | O=C(c1cnn2cc(N3CCCC3)ccc12)N1CCc2[nH]cnc2[C@H]1c1cc2ccccc2cn1 [Example 489, (R)-(4-(isoquinolin-3-yl)-6,7-dihydro-1H-imidazo[4,5-c]pyridin-5(4H)-yl)(6-(pyrrolidin-1-yl)pyrazolo[1,5-a]pyridin-3-yl)methanone]
9 | < 500 | Cc1nnc(C(=O)N2CC3(CC3)c3[nH]cnc3[C@H]2c2cc3ccccc3cn2)o1 [Example 490, (R)-(4′-(isoquinolin-3-yl)spiro[cyclopropane-1,7′-imidazo[4,5-c]pyridin]-5′(1′H,4′H,6′H)-yl)(5-methyl-1,3,4-oxadiazol-2-yl)methanone]
10 | > 5000 | Cc1ncoc1C(=O)N1CC2(CC2)c2[nH]cnc2[C@@H]1c1cc2ccccc2cn1 [Example 492, (S)-(4′-(isoquinolin-3-yl)spiro[cyclopropane-1,7′-imidazo[4,5-c]pyridin]-5′(1′H,4′H,6′H)-yl)(4-methyloxazol-5-yl)methanone]
11 | < 500 | Cc1ncoc1C(=O)N1CC2(CC2)c2[nH]cnc2[C@H]1c1cc2ccccc2cn1 [Example 493, (R)-(4′-(isoquinolin-3-yl)spiro[cyclopropane-1,7′-imidazo[4,5-c]pyridin]-5′(1′H,4′H,6′H)-yl)(4-methyloxazol-5-yl)methanone]
12 | 1000 to 5000 | C[C@@H]1CN(C(=O)c2nnc(-c3ccc(F)cn3)o2)[C@H](c2cc3ccccc3cn2)c2nc[nH]c21 [Example 494, (5-(5-fluoropyridin-2-yl)-1,3,4-oxadiazol-2-yl)((4R,7R)-4-(isoquinolin-3-yl)-7-methyl-6,7-dihydro-1H-imidazo[4,5-c]pyridin-5(4H)-yl)methanone]
13 | 1000 to 5000 | C[C@H]1CN(C(=O)c2nnc(-c3ccc(F)cn3)o2)[C@H](c2cc3ccccc3cn2)c2nc[nH]c21 [Example 496, (5-(5-fluoropyridin-2-yl)-1,3,4-oxadiazol-2-yl)((4R,7S)-4-(isoquinolin-3-yl)-7-methyl-6,7-dihydro-1H-imidazo[4,5-c]pyridin-5(4H)-yl)methanone]
14 | 1000 to 5000 | C[C@H]1CN(C(=O)c2nnc(-c3ccc(F)cn3)o2)[C@@H](c2cc3ccccc3cn2)c2nc[nH]c21 [Example 497, (5-(5-fluoropyridin-2-yl)-1,3,4-oxadiazol-2-yl)((4S,7S)-4-(isoquinolin-3-yl)-7-methyl-6,7-dihydro-1H-imidazo[4,5-c]pyridin-5(4H)-yl)methanone]
15 | 1000 to 5000 | C[C@H]1CN(C(=O)c2nnc(C(C)(C)F)o2)[C@@H](c2cc3ccccc3cn2)c2nc[nH]c21 [Example 498, (5-(2-fluoropropan-2-yl)-1,3,4-oxadiazol-2-yl)((4S,7S)-4-(isoquinolin-3-yl)-7-methyl-6,7-dihydro-1H-imidazo[4,5-c]pyridin-5(4H)-yl)methanone]
16 | 500 to 1000 | C[C@H]1CN(C(=O)c2nnc(C(C)(C)F)o2)[C@H](c2cc3ccccc3cn2)c2nc[nH]c21 [Example 499, (5-(2-fluoropropan-2-yl)-1,3,4-oxadiazol-2-yl)((4R,7S)-4-(isoquinolin-3-yl)-7-methyl-6,7-dihydro-1H-imidazo[4,5-c]pyridin-5(4H)-yl)methanone]
17 | < 500 | C[C@@H]1CN(C(=O)c2nnc(C(C)(C)F)o2)[C@H](c2cc3ccccc3cn2)c2nc[nH]c21 [Example 501, (5-(2-fluoropropan-2-yl)-1,3,4-oxadiazol-2-yl)((4R,7R)-4-(isoquinolin-3-yl)-7-methyl-6,7-dihydro-1H-imidazo[4,5-c]pyridin-5(4H)-yl)methanone]
18 | 500 to 1000 | C[C@H]1CN(C(=O)c2cnco2)[C@H](c2cc3ccccc3cn2)c2nc[nH]c21 [Example 503, ((4R,7S)-4-(isoquinolin-3-yl)-7-methyl-6,7-dihydro-1H-imidazo[4,5-c]pyridin-5(4H)-yl)(oxazol-5-yl)methanone]
19 | < 500 | C[C@@H]1CN(C(=O)c2cnco2)[C@H](c2cc3ccccc3cn2)c2nc[nH]c21 [Example 505, ((4R,7R)-4-(isoquinolin-3-yl)-7-methyl-6,7-dihydro-1H-imidazo[4,5-c]pyridin-5(4H)-yl)(oxazol-5-yl)methanone]
20 | < 500 | C[C@H]1CN(C(=O)c2ocnc2C2CC2)[C@H](c2cc3ccccc3cn2)c2nc[nH]c21 [Example 506, (4-cyclopropyloxazol-5-yl)((4R,7S)-4-(isoquinolin-3-yl)-7-methyl-6,7-dihydro-1H-imidazo[4,5-c]pyridin-5(4H)-yl)methanone]
21 | 1000 to 5000 | C[C@H]1CN(C(=O)c2ocnc2C2CC2)[C@@H](c2cc3ccccc3cn2)c2nc[nH]c21 [Example 507, (4-cyclopropyloxazol-5-yl)((4S,7S)-4-(isoquinolin-3-yl)-7-methyl-6,7-dihydro-1H-imidazo[4,5-c]pyridin-5(4H)-yl)methanone]
22 | 500 to 1000 | C[C@H]1CN(C(=O)c2nnc(C3CC3)o2)[C@H](c2cc3ccccc3cn2)c2nc[nH]c21 [Example 511, (5-cyclopropyl-1,3,4-oxadiazol-2-yl)((4R,7S)-4-(isoquinolin-3-yl)-7-methyl-6,7-dihydro-1H-imidazo[4,5-c]pyridin-5(4H)-yl)methanone]
23 | 500 to 1000 | C[C@@H]1CN(C(=O)c2nnc(C3CC3)o2)[C@H](c2cc3ccccc3cn2)c2nc[nH]c21 [Example 513, (5-cyclopropyl-1,3,4-oxadiazol-2-yl)((4R,7R)-4-(isoquinolin-3-yl)-7-methyl-6,7-dihydro-1H-imidazo[4,5-c]pyridin-5(4H)-yl)methanone]
24 | 1000 to 5000 | COc1ccc(-c2nnc(C(=O)N3C[C@H](C)c4[nH]cnc4[C@@H]3c3cc4ccccc4cn3)o2)nc1 [Example 515, ((4S,7S)-4-(isoquinolin-3-yl)-7-methyl-6,7-dihydro-1H-imidazo[4,5-c]pyridin-5(4H)-yl)(5-(5-methoxypyridin-2-yl)-1,3,4-oxadiazol-2-yl)methanone]
25 | 500 to 1000 | COc1ccc(-c2nnc(C(=O)N3C[C@H](C)c4[nH]cnc4[C@H]3c3cc4ccccc4cn3)o2)nc1 [Example 516, ((4R,7S)-4-(isoquinolin-3-yl)-7-methyl-6,7-dihydro-1H-imidazo[4,5-c]pyridin-5(4H)-yl)(5-(5-methoxypyridin-2-yl)-1,3,4-oxadiazol-2-yl)methanone]
26 | < 500 | N#Cc1ncoc1C(=O)N1CCc2[nH]cnc2[C@H]1c1cc2ccccc2cn1 [Example 517, (R)-5-(4-(isoquinolin-3-yl)-4,5,6,7-tetrahydro-1H-imidazo[4,5-c]pyridine-5-carbonyl)oxazole-4-carbonitrile]
27 | < 500 | Cn1ncnc1C(=O)N1CCc2[nH]cnc2[C@H]1c1cc2ccccc2cn1 [Example 518, [(4R)-4-(3-isoquinolyl)-1,4,6,7-tetrahydroimidazo[4,5-c]pyridin-5-yl]-(2-methyl-1,2,4-triazol-3-yl)methanone]
28 | > 5000 | (R)-(5-(1-methyl-1H-imidazol-4-yl)-1,3-oxadiazol-2- yl)(4-(quinazolin-2-yl)-6,7-dihydro-1H-imidazo[4,5- c]pyridin-5(4H)-yl)methanone [Example 198]
